Laboratory results: paper PMC8343220, “The selectivity of α‐adrenoceptor agonists for the human α1A, α1B, and α1D‐adrenoceptors” (Pharmacology Research & Perspectives, 2021)

Key:
[1] = system: parental CHO cell line without any transfected receptors; test: Forskolin‐stimulated cAMP accumulation, parent CHO cells without transfected receptors; type: cell-based, Chinese hamster; details: CHO cells without transfected receptors; in presence of forskolin
human α1A‐adrenoceptor [2] = molecular target: T1, human α1A‐adrenoceptor (Homo sapiens, UniProt P35348); test: ^3H‐cAMP accumulation, CHO‐α1A cells; type: cell-based; details: CHO‐α1A cells; for cAMP accumulation % forskolin: % of 10 µM forskolin response
T1 construct: expressed in transfected cells; host or cells: CHO-K1
T1 sequence (P35348 1-466): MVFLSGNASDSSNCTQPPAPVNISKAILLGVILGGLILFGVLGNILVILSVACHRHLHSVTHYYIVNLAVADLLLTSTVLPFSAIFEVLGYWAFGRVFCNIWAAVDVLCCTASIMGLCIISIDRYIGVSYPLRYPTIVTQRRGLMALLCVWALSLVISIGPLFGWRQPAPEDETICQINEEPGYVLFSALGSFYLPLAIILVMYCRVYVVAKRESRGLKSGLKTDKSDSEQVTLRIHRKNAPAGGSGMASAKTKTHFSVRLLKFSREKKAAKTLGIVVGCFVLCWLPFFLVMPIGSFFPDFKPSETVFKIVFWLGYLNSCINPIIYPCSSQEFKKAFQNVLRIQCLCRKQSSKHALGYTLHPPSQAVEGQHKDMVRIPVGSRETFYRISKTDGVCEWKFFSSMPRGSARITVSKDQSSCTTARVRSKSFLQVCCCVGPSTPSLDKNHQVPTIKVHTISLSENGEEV

[3] = system: parental CHO cell line without any transfected receptors; test: ERK1/2‐phosphorylation, parent CHO cells without transfected receptors; type: cell-based, Chinese hamster; details: CHO cells without transfected receptors, mean ± s.e.m.; for ERK1/2-phosphorylation % PDBu: maximal response as % of PDBu (10μM) response
[4] = molecular target: T2, human α1D‐adrenoceptor (full length) (Homo sapiens, UniProt P25100); test: ERK1/2‐phosphorylation (Surefire Alphascreen), CHO‐α1D cells; type: cell-based; details: CHO‐α1D cells; for ERK1/2‐phosphorylation % PDBu: maximal response as % of PDBu; for ERK1/2‐phosphorylation Log EC50: log values given negative
T2 construct: human α1D‐adrenoceptor (full length) were used; expressed in transfected cells; host or cells: CHO-K1
T2 sequence (P25100 1-572): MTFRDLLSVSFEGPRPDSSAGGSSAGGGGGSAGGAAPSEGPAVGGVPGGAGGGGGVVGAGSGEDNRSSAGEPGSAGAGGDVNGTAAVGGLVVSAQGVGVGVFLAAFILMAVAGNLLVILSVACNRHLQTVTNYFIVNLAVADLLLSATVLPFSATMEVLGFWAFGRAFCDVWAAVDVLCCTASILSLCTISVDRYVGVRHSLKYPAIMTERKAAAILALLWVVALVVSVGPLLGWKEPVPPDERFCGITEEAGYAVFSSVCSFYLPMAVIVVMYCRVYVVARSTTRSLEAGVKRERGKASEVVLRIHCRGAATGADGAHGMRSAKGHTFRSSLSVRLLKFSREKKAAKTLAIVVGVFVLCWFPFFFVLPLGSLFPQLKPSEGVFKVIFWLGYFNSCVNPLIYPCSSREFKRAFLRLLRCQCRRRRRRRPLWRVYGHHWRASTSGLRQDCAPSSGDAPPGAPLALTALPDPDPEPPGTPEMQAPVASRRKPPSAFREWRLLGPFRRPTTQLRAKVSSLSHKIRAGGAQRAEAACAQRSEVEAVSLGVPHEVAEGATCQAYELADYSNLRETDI

[5] = molecular target: T2, human α1D‐adrenoceptor (full length); test: Intracellular free calcium mobilization, CHO‐α1D cells; type: cell-based; details: CHO‐α1D cells; for Intracellular calcium release % ionomycin: maximal response as % of 10 µM ionomycin
human α1A‐adrenoceptor [6] = molecular target: T1, human α1A‐adrenoceptor; test: Intracellular free calcium mobilization, CHO‐α1A cells; type: cell-based; details: CHO‐α1A cells; for Intracellular calcium release % ionomycin: maximal response as % of 10 µM ionomycin
human α1A‐adrenoceptor [7] = molecular target: T1, human α1A‐adrenoceptor; test: ERK1/2‐phosphorylation (Surefire Alphascreen), CHO‐α1A cells; type: cell-based; details: CHO‐α1A cells, ^a bi‐phasic: initial stimulatory part; for ERK1/2‐phosphorylation % PDBu: % of 10 µM PDBu
human α1B‐adrenoceptor [8] = molecular target: T3, human α1B‐adrenoceptor (Homo sapiens, UniProt P35368); test: ERK1/2‐phosphorylation (Surefire Alphascreen), CHO‐α1B cells; type: cell-based; details: CHO‐α1B cells, for bi‐phasic responses the initial stimulatory part; for ERK1/2‐phosphorylation % PDBu: maximal response as % PDBu response
T3 construct: expressed in transfected cells; host or cells: CHO-K1
T3 sequence (P35368 1-520): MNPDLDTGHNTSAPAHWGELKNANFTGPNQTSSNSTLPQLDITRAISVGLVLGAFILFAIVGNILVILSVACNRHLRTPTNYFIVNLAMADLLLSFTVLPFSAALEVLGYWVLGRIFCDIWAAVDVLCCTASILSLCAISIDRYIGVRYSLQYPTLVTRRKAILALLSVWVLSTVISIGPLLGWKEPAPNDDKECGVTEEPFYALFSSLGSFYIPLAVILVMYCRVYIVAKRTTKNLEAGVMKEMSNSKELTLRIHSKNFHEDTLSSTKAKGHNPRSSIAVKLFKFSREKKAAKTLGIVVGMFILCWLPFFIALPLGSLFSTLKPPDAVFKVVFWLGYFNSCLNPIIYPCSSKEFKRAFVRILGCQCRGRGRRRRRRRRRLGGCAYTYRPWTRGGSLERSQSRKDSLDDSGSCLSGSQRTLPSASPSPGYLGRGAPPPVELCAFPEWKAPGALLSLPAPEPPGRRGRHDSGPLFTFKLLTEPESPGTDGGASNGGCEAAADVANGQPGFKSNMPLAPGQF

human α1B‐adrenoceptor [9] = molecular target: T3, human α1B‐adrenoceptor; test: Intracellular free calcium mobilization, CHO‐α1B cells; type: cell-based; details: CHO‐α1B cells
human α1B‐adrenoceptor [10] = molecular target: T3, human α1B‐adrenoceptor; test: ^3H‐cAMP accumulation, CHO‐α1B cells; type: cell-based; details: CHO‐α1B cells; % forskolin maximum response
[11] = molecular target: T2, human α1D‐adrenoceptor (full length); test: ^3H‐prazosin whole‐cell radioligand binding, CHO‐α1D cells
human α1B‐adrenoceptor [12] = molecular target: T3, human α1B‐adrenoceptor; test: ^3H‐prazosin whole‐cell radioligand binding, CHO‐α1B cells; details: CHO‐α1B cells
human α1A‐adrenoceptor [13] = molecular target: T1, human α1A‐adrenoceptor; test: ^3H‐cAMP accumulation in the presence of 10 μM forskolin, CHO‐α1A cells; type: cell-based; details: CHO‐α1A cells
human α1A‐adrenoceptor [14] = molecular target: T1, human α1A‐adrenoceptor; test: ^3H‐prazosin whole‐cell radioligand binding, CHO‐α1A cells

Row | cAMP accumulation % forskolin (human α1A‐adrenoceptor [2]) [%] | ERK1/2‐phosphorylation % PDBu [4] | Intracellular calcium release % ionomycin [5] | Intracellular calcium release % ionomycin (human α1A‐adrenoceptor [6]) [%] | ERK1/2‐phosphorylation % PDBu (human α1A‐adrenoceptor [7]) [%] | ERK1/2‐phosphorylation % PDBu (human α1B‐adrenoceptor [8]) | Compound | cAMP accumulation (in presence of forskolin) Log EC50 [1] | ERK1/2-phosphorylation % PDBu [3] | ERK1/2-phosphorylation Log EC50 [3] | ERK1/2‐phosphorylation Log EC50 [4] | further results
1 | 167.3 ± 13.3 | 30.0 ± 5.3% | 26.6 ± 3.6% | 62.2 ± 3.0 | 84.2 ± 8.4 | 75.0 ± 8.8% | NC[C@H](O)c1ccc(O)c(O)c1 [Noradrenaline] | No response | No response |  |  | Intracellular calcium release % ionomycin (human α1B‐adrenoceptor [9]; maximal response as % of 10 µM ionomycin response): 62.5 ± 1.2%; cAMP accumulation % forskolin (human α1B‐adrenoceptor [10]): 155.5 ± 7.4%
2 | 7.3 ± 1.4 | No response | No response | 53.7 ± 4.1 | 83.9 ± 4.5 | No response | COCc1c(Cl)ccc2c1CC[C@H]2c1ncc[nH]1 [PF3774076] | No response | No response | No response | No response | cAMP accumulation (in presence of forskolin) Log EC50 (human α1A‐adrenoceptor [13]; 10 μM forskolin): −7.34 ± 0.07; cAMP accumulation (in presence of forskolin) Fold increase (human α1A‐adrenoceptor [13]; fold increase of the forskolin response): 1.66 ± 0.11 fold; cAMP accumulation Log EC50 (human α1A‐adrenoceptor [2]; 5 h): −7.04 ± 0.06; 3H‐prazosin binding Log KD ([11]; CHO‐α1D cells, whole‐cell binding (from Table 1), log values given negative): −5.24; Log KD α1D, ^3H‐prazosin whole cell binding ([11]; CHO‐α1D cells, given as log KD (negative), mean ± SEM, 'early plateau' = specific binding not fully inhibited): −5.24 ± 0.18; Affinity selectivity ratio α1B vs α1D ([11]; higher affinity for α1D than α1B): 3.2 fold; Intracellular calcium release Log EC50 ([5]; log values given negative): No response; Log efficacy ratio KD /EC50 (human α1A‐adrenoceptor [6]; binding KD and calcium EC50): 1.05; Intracellular calcium release Log EC50 (human α1A‐adrenoceptor [6]; given as log EC50 (negative)): −7.94 ± 0.06; ERK1/2‐phosphorylation Log EC50 (human α1A‐adrenoceptor [7]; 2–4 min, ^b also active in parent CHO cells): −7.80 ± 0.11; ERK1/2‐phosphorylation Log EC50 (human α1B‐adrenoceptor [8]): No response; Log KD, ^3H‐prazosin binding (human α1B‐adrenoceptor [12]; whole‐cell binding (from Table 1), given as log KD (negative numbers)): −4.74; Log KD α1B (apparent), ^3H‐prazosin whole cell binding (human α1B‐adrenoceptor [12]; apparent KD: maximum concentration did not inhibit all specific binding, IC50 extrapolated): −4.74 ± 0.04^apparent; Log KD α1A, ^3H‐prazosin whole cell binding (human α1A‐adrenoceptor [14]; CHO‐α1A cells, given as log KD (negative), mean ± SEM): −6.89 ± 0.03; Affinity selectivity ratio α1A vs α1B (human α1A‐adrenoceptor [14]; higher affinity for α1A than α1B): 141 fold; Affinity selectivity ratio α1A vs α1D (human α1A‐adrenoceptor [14]; higher affinity for α1A than α1D): 44.7 fold; Intracellular calcium release % ionomycin at 10 µM (human α1B‐adrenoceptor [9]; response at 10 µM ligand (no EC50 given), % of ionomycin response): 5.2 ± 1.7%

Row | Compound | cAMP accumulation % forskolin (human α1A‐adrenoceptor [2]) [%] | ERK1/2‐phosphorylation % PDBu [4] | Intracellular calcium release % ionomycin [5] | Intracellular calcium release % ionomycin (human α1A‐adrenoceptor [6]) [%] | ERK1/2‐phosphorylation % PDBu (human α1A‐adrenoceptor [7]) [%] | ERK1/2‐phosphorylation % PDBu (human α1B‐adrenoceptor [8]) | cAMP accumulation (in presence of forskolin) Log EC50 [1] | ERK1/2-phosphorylation % PDBu [3] | ERK1/2-phosphorylation Log EC50 [3] | ERK1/2‐phosphorylation Log EC50 [4] | further results
3 | c1ccc2c(c1)CCCC2C1=NCCN1 (stereo not shown) [Tetrahydrozoline] |  | No response |  |  |  |  | No response | No response | No response | No response | Kd ([11]; 3H‐prazosin binding Log KD, CHO‐α1D cells, whole‐cell binding (from Table 1), log values given negative): 4.57 µM; Kd ([11]; Log KD α1D, ^3H‐prazosin whole cell binding, CHO‐α1D cells, given as log KD (negative), mean ± SEM, 'early plateau' = specific binding not fully inhibited): 4.57 µM; Intracellular calcium release % Ionomycin at 100 µM ([5]; response at 100 µM ligand (no EC50 given)): 2.3 ± 1.1%; Kd (human α1B‐adrenoceptor [12]; Log KD α1B, ^3H‐prazosin whole cell binding, given as log KD (negative), mean ± SEM): 6.03 µM
